Test results taken from ChEMBL document CHEMBL3046037, “Genetic analysis and molecular characterisation of laboratory and field mutants of Botryotinia fuckeliana (Botrytis cinerea) resistant to QoI fungicides” (Pest Manag Sci, 2012).
Values after ≈ are worked out from the molar mass of the structure shown. Active and inactive are the calls of the source. The calls are words filed in the database; no cut-off is given here.

Columns and labels:
Botrytis cinerea [1] = test: Antifungal activity against Botryotinia fuckeliana SAS56 assessed as complete inhibition of colony growth at 3 mg/ml; assay type: functional, organism-based
Botrytis cinerea [2] = test: Antifungal activity against Botryotinia fuckeliana SAS405 assessed as inhibition of colony growth; assay type: functional, organism-based
Botrytis cinerea [3] = test: Antifungal activity against Botryotinia fuckeliana SAS56 assessed as inhibition of colony growth; assay type: functional, organism-based
Botrytis cinerea [4] = test: Resistance index, ratio of EC50 for QoI fungicide-resistant Botryotinia fuckeliana lab isolates to EC50 for Botryotinia fuckeliana SAS405; assay type: functional
Botrytis cinerea [5] = test: Resistance index, ratio of EC50 for QoI fungicide-resistant Botryotinia fuckeliana lab isolates to EC50 for Botryotinia fuckeliana SAS56; assay type: functional
Botrytis cinerea [6] = test: Antifungal activity against QoI fungicide-resistant Botryotinia fuckeliana lab isolates assessed as inhibition of colony growth; assay type: functional, organism-based
Botrytis cinerea [7] = test: Resistance index, ratio of EC50 for QoI fungicide-resistant Botryotinia fuckeliana field isolates expressing cytb G143A mutant gene to EC50 for Botryotinia fuckeliana SAS405; assay type: functional
Botrytis cinerea [8] = test: Resistance index, ratio of EC50 for QoI fungicide-resistant Botryotinia fuckeliana field isolates expressing cytb G143A mutant gene to EC50 for Botryotinia fuckeliana SAS56; assay type: functional
Botrytis cinerea [9] = test: Antifungal activity against QoI fungicide-resistant Botryotinia fuckeliana field isolates expressing cytb G143A mutant gene assessed as inhibition of colony growth; assay type: functional, organism-based
Botrytis cinerea [10] = test: Antifungal activity against Botryotinia fuckeliana SAS56 assessed as complete inhibition of colony growth at […]; assay type: functional, organism-based

With `CO/C=C(/C(=O)OC)c1ccccc1Oc1cc(Oc2ccccc2C#N)ncn1` [AZOXYSTROBIN] the “growth inhibition (GI)” value (Botrytis cinerea [1]) was “Active”, the EC50 (Botrytis cinerea [2]) was 0.1 µg/mL (≈ 0.248 µM) and the EC50 (Botrytis cinerea [3]) was 0.1 µg/mL (≈ 0.248 µM).
For `CO/N=C(/C(=O)OC)c1ccccc1COc1ccccc1C` [KRESOXIM-METHYL], the “growth inhibition (GI)” value (Botrytis cinerea [1]) was “Active”, the EC50 (Botrytis cinerea [2]) was 0.01 µg/mL (≈ 0.0319 µM) and the EC50 (Botrytis cinerea [3]) was 0.01 µg/mL (≈ 0.0319 µM).
For `CO/N=C(\C(=O)OC)c1ccccc1CO/N=C(\C)c1cccc(C(F)(F)F)c1`, the “Ratio EC50” value (Botrytis cinerea [4]) was >1000, the “Ratio EC50” value (Botrytis cinerea [5]) was >1000 and the EC50 (Botrytis cinerea [6]) was > 100 µg/mL. For the same compound, the “Ratio EC50” value (Botrytis cinerea [7]) was >1000, the “Ratio EC50” value (Botrytis cinerea [8]) was >1000 and the EC50 (Botrytis cinerea [9]) was > 100 µg/mL. For the same compound, the “growth inhibition (GI)” value (Botrytis cinerea [10]) was “Active”, the EC50 (Botrytis cinerea [2]) was 0.01 µg/mL (≈ 0.0245 µM) and the MIC (Botrytis cinerea [2]) was 1 µg/mL (≈ 2.45 µM). For the same compound, the EC50 (Botrytis cinerea [3]) was < 0.01 µg/mL and the MIC (Botrytis cinerea [3]) was 1 µg/mL (≈ 2.45 µM).
